From patent US12697402B2, “Detection of colonic neoplasia in vivo using near-infrared peptide targeted against overexpressed cMet” (THE REGENTS OF THE UNIVERSITY OF MICHIGAN, priority 2019, dated 2026)
“Also recorded” adds a separate entry of the source. Peptide text beside a SMILES is read from it. * marks the point of attachment. X1 = CN1/C(=C/C=C/C=C/C2=[N+](CCCCCC(=O)*)c3ccc4ccccc4c3C2(C)C)C(C)(C)c2c1ccc1ccccc21

How the values were obtained:
CCD841 cells = experiment: Alamar blue assay, CCD841; type: cell-based, human; conditions: normal colon cells; 48 hours; HGF 25 ng/mL; peptide 5 or 100 μM
Experimental: (§1) An alamar blue assay was performed using HT29 and CCD841 cells. After culturing in serum free media overnight, about 3×10^3 cells were seeded per well in serum free media in 96 well plates at a final volume of 100 μL per well. […] Alamar blue reagent (10 μL) was added in amounts equal to 10% of the volume in the well, and incubated at 37° C. for 4 hours. Fluorescence with excitation at λex=530-560 nm, and emission at λex=590 nm, was measured.

cMet (HT29 cells) = cMet (HT29 cells) (Homo sapiens, UniProt P08581); experiment: biochemical
cMet (HT29 cells), sequence (P08581 25-1390): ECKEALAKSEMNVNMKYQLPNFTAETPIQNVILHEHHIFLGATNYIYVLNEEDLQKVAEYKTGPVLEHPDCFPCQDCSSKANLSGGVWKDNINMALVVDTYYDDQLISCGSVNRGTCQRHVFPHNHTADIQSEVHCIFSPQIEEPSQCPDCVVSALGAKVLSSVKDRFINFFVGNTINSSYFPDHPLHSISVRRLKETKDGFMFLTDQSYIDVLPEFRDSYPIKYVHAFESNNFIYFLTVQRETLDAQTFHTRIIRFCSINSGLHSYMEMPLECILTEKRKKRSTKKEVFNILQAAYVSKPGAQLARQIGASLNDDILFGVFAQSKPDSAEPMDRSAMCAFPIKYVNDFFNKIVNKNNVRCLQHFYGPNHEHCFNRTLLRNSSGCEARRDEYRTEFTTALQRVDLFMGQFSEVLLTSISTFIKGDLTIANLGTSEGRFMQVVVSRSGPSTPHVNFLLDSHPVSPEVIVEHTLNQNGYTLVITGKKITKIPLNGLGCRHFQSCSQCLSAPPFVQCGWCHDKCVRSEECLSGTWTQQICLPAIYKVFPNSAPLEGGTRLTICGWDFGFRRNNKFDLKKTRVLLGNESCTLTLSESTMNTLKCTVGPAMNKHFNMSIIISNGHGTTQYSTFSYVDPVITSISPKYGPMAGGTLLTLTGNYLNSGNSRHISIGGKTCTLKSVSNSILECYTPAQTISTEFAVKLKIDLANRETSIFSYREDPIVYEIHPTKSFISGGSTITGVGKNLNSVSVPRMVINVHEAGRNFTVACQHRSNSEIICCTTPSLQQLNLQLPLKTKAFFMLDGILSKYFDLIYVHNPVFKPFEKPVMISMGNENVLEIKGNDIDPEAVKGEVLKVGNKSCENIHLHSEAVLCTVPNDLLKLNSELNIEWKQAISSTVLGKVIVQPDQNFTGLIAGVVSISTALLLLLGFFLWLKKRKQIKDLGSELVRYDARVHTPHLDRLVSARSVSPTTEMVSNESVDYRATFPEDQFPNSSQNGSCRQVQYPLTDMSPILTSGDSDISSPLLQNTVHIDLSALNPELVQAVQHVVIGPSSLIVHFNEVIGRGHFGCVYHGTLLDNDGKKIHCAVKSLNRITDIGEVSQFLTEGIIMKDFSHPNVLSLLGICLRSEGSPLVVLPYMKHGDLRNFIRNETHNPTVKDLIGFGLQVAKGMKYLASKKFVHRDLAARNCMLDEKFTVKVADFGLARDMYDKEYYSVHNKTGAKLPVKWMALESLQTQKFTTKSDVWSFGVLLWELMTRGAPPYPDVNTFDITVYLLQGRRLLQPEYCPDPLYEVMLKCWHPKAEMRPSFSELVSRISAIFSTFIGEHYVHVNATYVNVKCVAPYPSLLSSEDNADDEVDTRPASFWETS
Experimental: Cells then were washed 3 times with 1×PBS containing 0.5% BSA to remove unbound peptides before analysis with flow cytometry (FACS Canto; BD Biosciences, San Jose, CA). Sample means were used to calculate the equilibrium dissociation constant KD using nonlinear regression analysis with Origin 6.1 data analysis software (OriginLab, Northampton, MA). KD=1/KA was calculated by performing a least-squares fit of the data to the nonlinear equation I[X]=(I0+Imaxka[X])/(I0+ka[X]). I0 and Imax are the initial and maximum fluorescence intensities, corresponding to no peptide and peptide saturation, respectively, and [X] represents the concentration of the bound peptide.^34

[1] = tested on: phosphorylation of cMet, AKT and ERK1/2; experiment: Effect of peptide on cell signaling (Western blot); type: cell-based, human; conditions: HT29 cells; 10, 30, 120 min; HGF 25 ng/mL; peptide 5 or 100 μM
Experimental: HT29 cells were treated with serum-free medium overnight for starvation before incubation with hHGF (hHGF, 294-HG-005, R&D) or peptides. Recombinant Human HGF Protein was added to HT29 cells at concentrations of 25 ng/ml for 10, 30, or 120 min in separate wells. QQT*-Cy5.5 and TLQ*-Cy5.5 were added at concentrations of 5 or 100 μM for 10, 30, and 120 min. Peptides were added at concentrations of 5 and 100 μM for 10, 30, or 120 min. Cells were then washed with 1×PBS and lysed with Pierce RIPA buffer containing Halt Phosphatase Inhibitor Cocktail (Thermo Fisher) and Halt Protease Inhibitor Cocktail (Thermo Fisher). Protein contents were quantified by Bicinchoninic Acid Assay (BCA). Anti-cMet antibody (Cell Signaling, #8198), phospho-cMet (Tyr1234/1235) antibody (Cell Signaling, #3077), anti-AKT antibody (Cell Signaling, #4691), anti-phospho-AKT antibody (Cell Signaling, #9271), anti-ERK1/2 antibody (Abcam, #ab17942), anti-phospho-ERK1/2 antibody (Abcam, #ab50011), and anti-tubulin antibody (Invitrogen, #32-2600) were used per manufacturer's instructions.

HT29 cells = experiment: Alamar blue assay, HT29; type: cell-based, human; conditions: 48 hours; HGF 25 ng/mL; peptide 5 or 100 μM
Experimental: as §1

`CC(C)C[C@H](NC(=O)[C@H](CO)NC(=O)[C@H](Cc1c[nH]c2ccccc12)NC(=O)[C@H](CC(N)=O)NC(=O)[C@@H](NC(=O)[C@H](CCC(N)=O)NC(=O)[C@@H](N)CCC(N)=O)[C@@H](C)O)C(=O)NCC(=O)NCC(=O)NCC(=O)N[C@@H](CO)C(=O)N[C@@H](CCCCNC(=O)CCCCC[N+]1=C(/C=C/C=C/C=C2/N(C)c3ccc4ccccc4c3C2(C)C)C(C)(C)c2c1ccc1ccccc21)C(N)=O` [QQT*-Cy5.5] (H-QQTNWSLGGGSK(X1)-NH2) was tested, and the “growth of CCD841 cells” value (CCD841 cells) was “no effect on growth; also recorded: No change” and the Kd (cMet (HT29 cells)) was 57 nM.
“HGF: recombinant human hepatocyte growth factor, known ligand for cMet, positive control” was tested, and the “phosphorylation of cMet and downstream AKT and ERK1/2” value [1] was “strong phosphorylation activity; also recorded: induced phosphorylation” and the “growth of HT29 cells” value (HT29 cells) was “increased growth”.
